Measurements taken from patent publication EP0086660B1, “Renally active tetrapeptides” (SMITHKLINE BECKMAN CORPORATION, priority 1982, dated 1985).
Read-outs that look alike come from different tables or passages of the source. Square brackets hold non-standard residues; d marks the D form. Peptide text beside a SMILES is read from it. * marks the point of attachment. Butanoyl(4-(4-HOPh)) = O=C(CCCc1ccc(O)cc1)*

How the values were obtained:
[1] = secondary test
anesthetized dogs = assay: anesthetized dog protocol: infusion, measuring MAP, RBF, RVR and HR; type: in vivo
[2] = test system: spontaneously hypertensive rat
[3] = secondary test; remark: listed apart in the source
[4] = cumulative effects at 300 µg/kg/min

Compound: 4-(4-hydroxyphenyl)-butyryl-L-prolyl-D,L-a-methylphenylalanyl-glycyl-L-proline [Example 2]
- ED15 [1]: 1.9e-06 µg/kg
- Renal blood flow (anesthetized dogs; cumulative effect, measured after the normal period of the test, increased from 127 ml/min): 162 mL/min
- cardiac rate (HR) (anesthetized dogs; cumulative effect, measured after the normal period of the test, predrug level 140 BPM): 105 BPM
- reversal of antidiuretic hormone activity (toad bladder): inactive
- activity in the spontaneously hypertensive rat protocol ([2]; rat, in vivo): not active
- water diuresis ([2]; spontaneously hypertensive rat protocol): slight water diuresis

Compound: O=C(NCC(=O)N1CCC[C@H]1C(=O)O)[C@@H](Cc1ccccc1)NC(=O)[C@@H]1CCCN1C(=O)CCCc1ccc(O)cc1 [Example 3, N-4-(4-hydroxyphenyl)-butyryl-L-prolyl-D-phenylalanyl-glycyl-L-proline] ({Butanoyl(4-(4-HOPh))}-P[dF]GP-OH)
- HR (anesthetized dogs; [4]): -8
- RBF (anesthetized dogs; [4]): +22
- RVR (anesthetized dogs; cumulative effects at 300 µg/kg/min, parameter name not printed before the value): -18

Compound: NCCc1ccc(O)c(O)c1 [Dopamine, dopamine]
- ED15 [3]: 3.5 µg/kg
